{"source": "patent US20210169899A1", "about": "“COMPOSITIONS AND THEIR USE IN ORAL DOSING REGIMENS” (Lipocine Inc., priority 2014, published 2021)", "assay": "Clinical trial of oral testosterone undecanoate TRT in hypogonadal males, 24 hour PK profiles of serum testosterone with dose titration at weeks 3 and 7", "assay_type": "in vivo, human", "experimental": "Specifically, 24 hour pharmacokinetic profiles for serum testosterone were determined for hypogonadal subjects receiving 225 mg TU twice daily with a meal after 3 weeks of treatment. The titration or dose adjustment was made based on the serum testosterone Cavg0-24 value calculated from the 24 hour pharmacokinetic profile (or the Cmax value). Another titration or dose adjustment was made similarly at 7 weeks. The titration or adjustment criteria used during the study is shown in the first column of Table A with the titration decision (dose adjustment) is shown in column 3.\nA clinical trial was performed as set forth below in regards to the TRT disclosed herein.\nDiagnosis of primary or secondary hypogonadism Male, 18 to 80 years of age, hypogonadism onset prior to age 65 Serum T<300 ng/dL, based on 2 consecutive samples, obtained on two separate days (6 to 10 AM) either naïve or following appropriate washout.\nIPSS≥19 points PSA>2 ng/mL\nHemoglobin <11.5 or >16.5 g/dL; Hematocrit <35 or >54% History of myocardial infarction; prostate or breast cancer; uncontrolled, untreated obstructive sleep apnea; gastric surgery, HIV, Hepatitis, seizures or convulsions Subjects with a partner who is pregnant or planning to become pregnant during the study A total of 314 subjects were enrolled and randomized into the TRT arm or active control arm. The clinical trial design is outlined in FIG. 1. Starting dose: 225 mg testosterone undecanoate (TU) (equivalent to 142 mg testosterone) twice daily, 12 hours apart, with standard meals Two dose titration periods based on full 24 hour PK profile at Week 3 and 7\nThe dose range was 150 mg to 300 mg BID (total daily dose of 300 mg to 600 mg TU).\nEfficacy Population (N=153): Subjects randomized into the study with at least one PK profile and no significant protocol deviations (includes imputed missing data/LOCF)\nSafety Set (N=210): Subjects randomized into the study and took at least one dose of the drug Imputed missing data by Last Observation Carried Forward (LOCF), or considered treatment failures if no PK data available Full Analysis Set (N=193): Subjects randomized into the study with at least one PK profile (includes imputed missing data/LOCF) Per Protocol Set (N=132): Subjects who completed Week 13 without significant protocol deviations Primary endpoint target ≥75% subjects should achieve Cavg within normal range (300 ng/dL to 1140 ng/dL) and >65% lower bound 95% CI", "key": {"[1]": {"settings": "serum total T, Efficacy Population"}}}
{"smiles": "CCCCCCCCCCC(=O)O[C@H]1CC[C@H]2[C@@H]3CCC4=CC(=O)CC[C@]4(C)[C@H]3CC[C@]12C", "note": "[testosterone undecanoate]", "values": [{"measurement": "95% CI lower bound of % subjects with Cavg within normal range", "setting": "Efficacy Population", "value": 81.9, "unit": "%"}, {"measurement": "% of subjects with Cavg < 300 ng/dL", "setting": "Efficacy Population", "value": 11.2, "unit": "%"}, {"measurement": "% of subjects with Cavg > 1140 ng/dL", "setting": "Efficacy Population", "value": 0.7, "unit": "%"}, {"measurement": "% subjects with Cavg within normal range", "setting": "Efficacy Population, serum testosterone Cavg 300 ng/dL to 1140 ng/dL", "value": 88.2, "unit": "%"}, {"measurement": "95% CI lower bound of % subjects with Cavg within normal range", "setting": "Full Analysis Set", "value": 82.0, "unit": "%"}, {"measurement": "% subjects with Cavg within normal range", "setting": "Full Analysis Set, Cavg 300 ng/dL to 1140 ng/dL", "value": 87.5, "unit": "%"}, {"measurement": "95% CI lower bound of % subjects with Cavg within normal range", "setting": "Per Protocol Set", "value": 81.1, "unit": "%"}, {"measurement": "% subjects with Cavg within normal range", "setting": "Per Protocol Set, Cavg 300 ng/dL to 1140 ng/dL", "value": 87.9, "unit": "%"}, {"measurement": "95% CI lower bound of % subjects with Cavg within normal range", "setting": "Safety Set", "value": 73.8, "unit": "%"}, {"measurement": "% subjects with Cavg within normal range", "setting": "Safety Set, Cavg 300 ng/dL to 1140 ng/dL", "value": 80.0, "unit": "%"}, {"measurement": "AM - PM effect", "setting": "comparison table", "value": "Not much different AM - PM"}, {"measurement": "Subjects with Cavg < 300 ng/dL", "setting": "comparison table", "value": 11, "unit": "%"}, {"measurement": "Variability (CV) of Cavg", "setting": "comparison table", "value": 37, "unit": "%"}, {"measurement": "Variability (CV) of Cmax", "setting": "comparison table", "value": 45, "unit": "%"}, {"measurement": "Mean Cavg", "setting": "comparison table, serum testosterone", "value": 447, "unit": "ng/dL"}, {"measurement": "Efficacy (% subjects with Cavg in normal range)", "setting": "comparison table, starting daily dose 450 mg TU", "value": "analysis (88.2%)"}, {"measurement": "24 hour pharmacokinetic profiles at weeks 3, 7 and 13 (FIG. 2)", "setting": "patients without dose change during the trial", "value": "consistent inter-day pharmacokinetics"}, {"measurement": "Cavg, Mean (CV)", "setting": "serum testosterone, Efficacy Population", "value": "447 (37%) ng/dL"}, {"measurement": "Proportion of subjects with 1800 ≤ Cmax ≤ 2500 ng/dL", "setting": "[1]", "value": 4.6, "unit": "%"}, {"measurement": "Proportion of subjects with Cmax < 1500 ng/dL", "setting": "[1]", "value": 82.9, "unit": "%"}, {"measurement": "Proportion of subjects with Cmax > 2500 ng/dL", "setting": "[1]", "value": 2.0, "unit": "%"}, {"measurement": "% subjects with serum testosterone Cavg0-24 h within the normal range", "setting": "subjects treated with TRT and titration scheme", "value": "about 87%"}]}
